Key:
[1] = known triarylmethane dyes; colour change from lower pH to higher pH; cited from earlier work
[2] = Storage stability of concentrates at elevated temperatures; conditions: pH indicator in agricultural concentrate with carbohydrate acids as pH modifying agent

Row | Compound | Range of pH colour transition [1] | stability of the pH indicator in the presence of carbohydrate acids / carbohydrate acid mixture [2]
1 | Cc1c(C2(c3cc(Br)c(O)c(Br)c3C)OS(=O)(=O)c3ccccc32)cc(Br)c(O)c1Br [bromocresol green] | pH 3.8-5.4 | 
2 | Cc1cc(C2(c3cc(C)c(O)c(Br)c3)OS(=O)(=O)c3ccccc32)cc(Br)c1O [bromocresol purple] | pH 5.2-6.8 | 
3 | O=S1(=O)OC(c2cc(Br)c(O)c(Br)c2)(c2cc(Br)c(O)c(Br)c2)c2ccccc21 [bromophenol blue] | pH 3.0-4.6 | 
4 | O=S1(=O)OC(c2ccc(O)c(Cl)c2)(c2ccc(O)c(Cl)c2)c2ccccc21 [chlorophenol red] | pH 4.8-6.7 | low stability

Source: US9277747B2, “Agricultural composition comprising pH sensitive agricultural chemicals and organic pH buffer” (NUTRIAG LTD., priority 2010, dated 2016)
